Assay results published in US7208167B2, “Treatment of hepatitis C with thymosin and peptide combination therapy” (SciClone Pharmaceuticals, Inc., priority 2000, dated 2007).
Marks after values point to notes of the source that are not given here. Ends that are not written are not given here.

Assays:
HCV genotype 1 = experiment: 12-week dose ranging study of thymalfasin plus PEG-IFN2a in chronic hepatitis C non-responders: serum HCV RNA, EVR; assay type: in vivo, patients; conditions: for Median Reduction HCV RNA (log): week 12
Experimental: The effects of 3 different doses of thymalfasin (TA1) in combination with PEG-IFN2a on week 12 HCV RNA levels and T cell counts was investigated.
(§1) Patients with chronic hepatitis C who were non-responders to previous antiviral therapy were randomized to receive PEG-IFN2a 180 μg/week plus thymalfasin given twice a week by subcutaneous injection (Group 1, 0.8 mg; Group 2, 1.6 mg; Group 3, 3.2 mg). In order to assess effect of thymalfasin on PEG-IFN2a, patients were included only if they were infected with HCV genotype 1 and had serum HCV RNA levels greater than 2 million copies per ml. The effect of therapy was assessed on the reduction in serum HCV RNA after 12 weeks, early virologic response (EVR, proportion which greater than 2 log reduction or negative HCV RNA by the Roche Amplicor assay) and on changes in peripheral CD3 and CD4 lymphocyte counts from baseline (assessed by flow cytometry).
31 patients (26 male) with median age 47 yrs (range 39–58) were enrolled. Four were non-responders to a previous course of standard IFN alone while 27 had previously non responded to standard IFN with ribavirin. All subjects completed 12 weeks of therapy. Six (19%) became negative for HCV RNA on therapy. […] The median reduction in HCV RNA increased with dose with thymosin (Table B).
Patients were randomized into three groups to receive 180 mcg/week of pegylated interferon alpha-2a plus one of three different bi-weekly doses of TA1.

[1] = system: peripheral CD3 lymphocyte counts; experiment: Same study: change in peripheral CD3 lymphocyte counts from baseline (flow cytometry); assay type: in vivo, patients
Experimental: as §1

[2] = system: peripheral CD4 lymphocyte counts; experiment: Same study: change in peripheral CD4 lymphocyte counts from baseline (flow cytometry); assay type: in vivo, patients
Experimental: as §1

HCV genotype-1a = experiment: Case report, person with hepatitis C: HCV RNA levels; assay type: in vivo, patient
Experimental: Then it was decided to start PEG Intron at ⅕ mc/kg/w, ribavirin at 12 mg/kg/day and thymosin-alpha-1 at 3.2 mcg BIW SQ, as a second course of treatment.

[3] = in vivo
Text: Patients will be monitored for significant side-effects or allergic manifestations possibly resulting from treatment. […] Patients will be educated on the symptoms of severe anaphylactic reactions and informed of appropriate countermeasures.

[4] = Group 1: 0.8 mg biw + PEG-IFN2a 180 μg/week
[5] = Group 2: 1.6 mg biw + PEG-IFN2a 180 μg/week
[6] = Group 3: 3.2 mg biw + PEG-IFN2a 180 μg/week

thymalfasin: 28 amino acidic polypeptide with a molecular weight of 3100 that has potent immunologic activity; synthetic Tα1 by SciClone (Ac-SDAAVDTSSEITTKDLKEKKEVVEEAEN; UniProt P06454 2-29, looked up)
EVR, early virologic response (greater than 2 log reduction or negative HCV RNA) (HCV genotype 1; Group 1: 0.8 mg biw + PEG-IFN2a 180 μg/week, 12 weeks, listed as T1): 20% | EVR, early virologic response (greater than 2 log reduction or negative HCV RNA) (HCV genotype 1; Group 1: 0.8 mg biw + PEG-IFN2a 180 μg/week, 12 weeks, listed as TA1): 20% | Median Reduction HCV RNA (log) (HCV genotype 1; Group 1: T1 0.8 mg biw sc + PEG-IFN2a 180 μg/week, n=10): 0.57 log | EVR, early virologic response (greater than 2 log reduction or negative HCV RNA) (HCV genotype 1; Group 2: 1.6 mg biw + PEG-IFN2a 180 μg/week, 12 weeks, listed as T1): 30% | EVR, early virologic response (greater than 2 log reduction or negative HCV RNA) (HCV genotype 1; Group 2: 1.6 mg biw + PEG-IFN2a 180 μg/week, 12 weeks, listed as TA1): 30% | Median Reduction HCV RNA (log) (HCV genotype 1; Group 2: T1 1.6 mg biw sc + PEG-IFN2a 180 μg/week, n=10, p < 0.01 vs group 1): 0.97* log | EVR, early virologic response (greater than 2 log reduction or negative HCV RNA) (HCV genotype 1; Group 3: 3.2 mg biw + PEG-IFN2a 180 μg/week, 12 weeks, listed as T1): 36% | EVR, early virologic response (greater than 2 log reduction or negative HCV RNA) (HCV genotype 1; Group 3: 3.2 mg biw + PEG-IFN2a 180 μg/week, 12 weeks, listed as TA1): 36% | Median Reduction HCV RNA (log) (HCV genotype 1; Group 3: T1 3.2 mg biw sc + PEG-IFN2a 180 μg/week, n=11, p < 0.005 vs group 1): 1.09** log | Patients who became negative for HCV RNA on therapy (HCV genotype 1; all 31 patients, all three dose groups, with PEG-IFN2a, 12 weeks): 19% | CD3+ change from baseline [1, 4]: 0% | CD3+ change from baseline [1, 5]: +8.3% | CD3+ change from baseline [1, 6]: +7.5% | CD4+ change from baseline [2, 4]: −0.2% | CD4+ change from baseline [2, 5]: +14.8% | CD4+ change from baseline [2, 6]: +8.8% | HCV RNA by TMA (HCV genotype-1a; 1 and 3 months after stopping 12 months of PEG Intron + ribavirin + thymosin-alpha-1): negative | HCV RNA blood levels by TMA (HCV genotype-1a; PEG Intron ⅕ mc/kg/w + ribavirin 12 mg/kg/day + thymosin-alpha-1 3.2 mcg BIW SQ, month 1, 3, 6 and 12): less than 5 IU/mL | local or systemic side effects [3]: no local or systemic side effects have been observed
